Test [1] can be described thus: Titration of artificial dentinal fluid, aggregation measured by absorbance. It counts as physicochemical. The following applies: pH of 8.5 and above. As to the method:
In order to determine the conditions that promote intrinsic plug formation, we performed the following experiments. We prepared a solution comprised of the ions present in dentinal fluid (which acted as artificial dentinal fluid) and progressively added (titrated) various solutions thereto to determine the conditions and substances conducive to the formation of aggregates (i.e., dentinal plugs). Aggregation was determined by means of measurement of the absorbance with a spectrophotometer.

Test [2] is described as follows: Hydraulic conductance of dentine discs (Greenhill and Pashley device), simulation of dentinal tubule plugging. The following applies: for Hydraulic conductance, effect in words: summary of Table 1. The source says: A device developed by Greenhill and Pashley (J. Dental Research, 60:686-698, 1981) that enables simulation of dentinal tubule plugging in vivo was used to assess the effectiveness of the invention. Dentine discs that varied in thickness from 0.6 to 0.8 mm were cut with a Buhler Isomet saw from extracted caries-free molar teeth. They were then etched with 6% citric acid for two minutes to remove the smear layer and stored in 70% ethanol until used. A disc was mounted in the chamber of the apparatus with occlusal side facing upwards. The occlusal side is determined by passing light through a plastic grid beneath the section and observing the section with a dissecting microscope. The tubules appear further apart with the occlusal side up because of the lower tubular density of the dentine occlusally (Walton et al., J. Dental Research 55:639-642, 1976). Hydraulic conductance of fluid through the discs was determined as described by Greenhill and Pashley, supra.
Fluid containing levels of ions present in serum (Merck Manual, 1972) was used to perfuse the disc. Their concentrations in mM were as follows: Na-140.5, K-4.31, Ca-2.5, Mg-1.0, P-1.3. The pH of this solution is raised to 7.0 with sodium hydroxide. The solution was filtered through a […] (Millipore Corp., Marlborough, Mass. 01752) prior to use to remove any bacteria present. This solution is called artificial ionic dentinal fluid (AIDF). Hydrostatic pressure was created by a fluid reservoir leading via a glass capillary tube into the pulpal side of the chamber at a level 30 cm above that of the surface of the horizontally positioned disc. The distance traveled by an air bubble positioned in the AIDF in the capillary tubing between this pressure head and the pulpal side of the disc in a fixed period of time was converted to hydraulic conductance values in ml cm^−1 min^−1 cm H20^−1.
First, […] of AIDF was applied to the upward facing occlusal side of the section and AIDF was allowed to flow through the disc from the pulpal side for a period of five minutes. The distance that the air bubble moved inside the capillary on the pulpal side of the chamber was measured so that the rate of fluid movement through the disc could be calculated and converted to hydraulic conductance values. This procedure was repeated two more times or until a uniform flow rate was achieved on three consecutive runs. […] Next, the mixture was removed with a pipette, washed three times with 400 μl of deionized water and replaced with AIDF. The AIDF was allowed to flow through the dentine slice and hydraulic conductance readings were made at selected times up to 90 minutes.

For the molecule `[Na+].[OH-]` [sodium hydroxide], in test [1], the “Aggregation (deposit formation) of dentinal fluid constituents” value (from here on “Aggregation (deposit formation)”) was “nor could one induce deposition”.

For `O=C([O-])[O-].[Ca+2]` [calcium carbonate], in test [1], the “Aggregation (deposit formation)” value is “not sufficient to produce deposit formation”. In addition, the “Percent Reduction in Hydraulic Conductance” value (from here on “Percent Reduction”) in test [2] (0 minutes after exposure) is given as 0%; in test [2] (15 minutes after exposure), −18.5%; in test [2] (30 minutes after exposure), −12.3%; in test [2] (45 minutes after exposure), −5.5%; in test [2] (60 minutes after exposure) it was −4.1%; in test [2] (75 minutes after exposure), 5.5%. In test [2] (90 minutes after exposure), the “Percent Reduction” value is given as 5.5%. Moreover, in test [2], the “Hydraulic conductance, effect in words” value is “much smaller effects”.

Regarding `N=C(N)NCCC[C@H](N)C(=O)O.O=C(O)O` [arginine bicarbonate], the “Aggregation (deposit formation)” value in test [1] is reported as “aggregation of dentinal fluid constituents occurred”. Moreover, the “Percent Reduction” value is given as 0% in test [2] (0 minutes after exposure); 11.7% in test [2] (15 minutes after exposure); 15.6% in test [2] (30 minutes after exposure); 14.4% in test [2] (45 minutes after exposure); 14.5% in test [2] (60 minutes after exposure); 16.1% in test [2] (75 minutes after exposure). Further, the “Percent Reduction” value in test [2] (90 minutes after exposure) is recorded as 16.1%. Also, in test [2], the “Hydraulic conductance, effect in words” value is reported as “much smaller effects”.

`O=C([O-])O.[Na+]` [sodium bicarbonate]: the “Aggregation (deposit formation)” value in test [1] is on record as “nor could one induce deposition”. The “Percent Reduction” value in test [2] (0 minutes after exposure) was 0%; in test [2] (15 minutes after exposure), −10.6%; in test [2] (30 minutes after exposure), −1.0%; in test [2] (45 minutes after exposure), 7.2%; in test [2] (60 minutes after exposure) it was 11.5%; in test [2] (75 minutes after exposure), 15.9%. Further, the “Percent Reduction” value in test [2] (90 minutes after exposure) is 19.7%.

The record behind these values is patent publication US20160279042A1, “Dental Anti-Hypersensitivity Composition and Method” (The Research Foundation for the State University of New York, priority 1999, published 2016).
